What was measured:
Format in all cases: binding
[1] = target: T1, AVPR2 (Homo sapiens, UniProt P30518); experiment: NanoBRET screen HiBiT-AVPR2 in HEK293
T1 construct: purchased Promega (in-house HiBiT-GPCR construct library, NanoBRET)
Experimental: (§1) Each tracer candidate was screened across the entire library of HiBiT-GPCR constructs using NanoBRET as the detection modality. As depicted in Figure 4A, the specificity of interactions was evaluated through decrease in BRET due to competitive displacement of a bound tracer by excess parental compound. Each tracer was analyzed for binding to each HiBiT-GPCR fusion in the absence and in the presence of competing parental compound. Briefly, HEK293 cells were transfected with HiBiT-GPCR constructs diluted into promoterless DNA to reduce expression and maximize translocation to the cell surface. Each tracer candidate was then screened at concentrations of 1 μM and 0.1 μM across cells expressing these fusions. Cells were treated for 1.5 h with tracer either alone or in the presence of 20 μM competing parental compound (i.e., control). BRET was measured upon addition of purified LgBiT and subsequent complementation with HiBiT genetically fused to a GPCR. The specificity of interactions was assessed through a decrease in BRET signal due to competitive displacement of the bound tracer. To further gauge the robustness of these interactions, the fold response over the control (i.e., BRETtracer/BRETcontrol) was calculated. We chose a 1.5-fold response, which translates to ≥7-fold signal over noise as the minimal threshold required to score an interaction as positive. […]. Below we highlight the screening results obtained for our exemplary fluorescent tracers based on Clozapine, Amitriptyline and AZD1283.
(§2) HiBiT-GPCR DNA constructs were diluted in 10 mM Tris pH 8 to a final concentration of 0.01 μg/μL, arrayed in 96-well plates and stored at −20 °C. For transfection, HEK293 cells were suspended in Opti-MEM (without phenol red) supplemented with 2% fetal bovine serum (Seradigm) and 100 units/mL penicillin–streptomycin (Gibco) at a final concentration of 220,000 cells/mL and dispensed into white 96-well plates at 90 μL/well. Subsequent transfections and screens were carried using an Agilent Bravo Automated Liquid Handling Platform. First, the 96-well HiBiT DNA arrays were diluted 25-fold in Opti-MEM (without serum or phenol red) to a final concentration of 0.0004 μg/μL and 20 μL of the diluted DNAs were transferred into new 96-well plates. Next, promoterless carrier DNA (1 μg/μL) was diluted 25-fold (0.04 μg/μL) and then dispensed into the diluted arrays at 20 μL/well. Following brief mixing, Viafect transfection reagent (Promega) diluted 16-fold into Opti-MEM was dispensed into the plates at 40 μL/well. After mixing by pipetting, plates were incubated for 10 min on the pipetting station deck. The DNA-transfection reagent complexes were then added to plates containing cells. To facilitate the screen, 10 μL of DNA-transfection reagent complexes were added in duplicates to the top 4 and bottom 4 rows, resulting in two identical 48-well arrays per plate. Plates with transfected cells were incubated for 18–20 h at 37 °C/5% CO2. A screen of each tracer across the entire library using two different concentrations requires duplicate plates of transfected cells. Depending on the number of tracers being screened, transfections can be scaled up using the same ratios. The next day, for each tracer, four 20× screening solutions in tracer dilution buffer (Promega) were prepared: two duplicates at final concentration of 20 μM and two duplicates at a final concentration of 2 μM. A competing unmodified compound was added to one of each duplicate at a final concentration of 400 μM. The four resulting solutions were diluted 4-fold in Opti-MEM without serum or phenol red to generate 5× solutions (5 µM and 0.5 µM tracer +/− 100 μM competing compound). To screen the library, a BioTek MultiFlo FX liquid dispenser was used to dispense 22.5 µL of tracer solution to the top 4 rows and 22.5 µL tracer + competing compound solution to the 4 bottom rows. Plates were briefly mixed on an orbital shaker and incubated for 1.5 h at room temperature. […]

[2] = target: T2, CCR3 (Homo sapiens, UniProt P51677); experiment: NanoBRET screen HiBiT-CCR3 in HEK293
T2 construct: purchased Promega (in-house HiBiT-GPCR construct library, NanoBRET)
T2 sequence (P51677 1-355): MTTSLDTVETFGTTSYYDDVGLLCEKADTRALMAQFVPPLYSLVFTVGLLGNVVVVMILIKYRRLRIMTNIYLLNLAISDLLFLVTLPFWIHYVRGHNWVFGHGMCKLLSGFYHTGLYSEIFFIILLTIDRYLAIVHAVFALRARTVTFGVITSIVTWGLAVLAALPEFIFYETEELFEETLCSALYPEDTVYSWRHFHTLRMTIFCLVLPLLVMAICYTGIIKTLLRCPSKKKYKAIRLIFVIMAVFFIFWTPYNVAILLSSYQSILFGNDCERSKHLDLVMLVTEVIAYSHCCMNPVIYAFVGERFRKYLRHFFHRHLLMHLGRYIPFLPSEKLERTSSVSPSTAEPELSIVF
Experimental: as §1, §2

[3] = target: T3, CCR5 (Homo sapiens, UniProt P51681); experiment: NanoBRET screen HiBiT-CCR5 in HEK293
T3 construct: purchased Promega (in-house HiBiT-GPCR construct library, NanoBRET)
Experimental: as §1, §2

[4] = target: T4, HTR4 (Homo sapiens, UniProt Q13639); experiment: NanoBRET screen HiBiT-HTR4 in HEK293
T4 construct: purchased Promega (in-house HiBiT-GPCR construct library, NanoBRET)
Experimental: as §1, §2

[5] = target: T5, RXFP3 (Homo sapiens, UniProt Q9NSD7); experiment: NanoBRET screen HiBiT-RXFP3 in HEK293
T5 construct: purchased Promega (in-house HiBiT-GPCR construct library, NanoBRET)
T5 sequence (Q9NSD7 1-469): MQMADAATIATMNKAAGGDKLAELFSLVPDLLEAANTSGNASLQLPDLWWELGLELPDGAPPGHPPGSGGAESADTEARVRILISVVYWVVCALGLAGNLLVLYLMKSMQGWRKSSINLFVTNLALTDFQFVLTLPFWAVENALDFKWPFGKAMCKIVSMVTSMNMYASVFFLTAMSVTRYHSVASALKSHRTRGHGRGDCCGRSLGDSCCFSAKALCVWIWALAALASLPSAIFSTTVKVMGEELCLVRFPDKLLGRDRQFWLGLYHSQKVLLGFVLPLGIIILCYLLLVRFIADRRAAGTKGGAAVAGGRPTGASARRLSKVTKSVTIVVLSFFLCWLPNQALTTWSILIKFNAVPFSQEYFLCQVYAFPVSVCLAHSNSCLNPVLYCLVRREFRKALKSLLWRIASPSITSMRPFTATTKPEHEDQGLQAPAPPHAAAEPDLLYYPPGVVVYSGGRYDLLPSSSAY
Experimental: as §1, §2

T3 sequence (P51681 whole entry): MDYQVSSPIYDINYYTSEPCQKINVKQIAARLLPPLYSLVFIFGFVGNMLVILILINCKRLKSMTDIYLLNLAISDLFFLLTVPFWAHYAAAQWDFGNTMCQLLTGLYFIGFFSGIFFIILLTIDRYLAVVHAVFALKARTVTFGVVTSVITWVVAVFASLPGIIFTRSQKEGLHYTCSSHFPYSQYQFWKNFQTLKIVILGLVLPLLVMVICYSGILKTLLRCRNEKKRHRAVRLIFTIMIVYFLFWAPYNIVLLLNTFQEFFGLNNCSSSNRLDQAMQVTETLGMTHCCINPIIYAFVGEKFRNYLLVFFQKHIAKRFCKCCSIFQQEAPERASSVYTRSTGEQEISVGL
T1 sequence (P30518 whole entry): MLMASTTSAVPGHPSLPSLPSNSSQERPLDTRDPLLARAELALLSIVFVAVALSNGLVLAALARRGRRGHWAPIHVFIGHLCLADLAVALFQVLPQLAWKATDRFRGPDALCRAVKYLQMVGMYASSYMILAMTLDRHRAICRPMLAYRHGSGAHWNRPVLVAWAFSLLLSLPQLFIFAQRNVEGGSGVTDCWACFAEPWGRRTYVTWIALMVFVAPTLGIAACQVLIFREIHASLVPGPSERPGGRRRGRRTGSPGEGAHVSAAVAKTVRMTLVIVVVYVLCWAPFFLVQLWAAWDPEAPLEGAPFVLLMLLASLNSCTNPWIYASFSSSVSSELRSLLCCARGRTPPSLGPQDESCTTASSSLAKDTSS
T4 sequence (Q13639 whole entry): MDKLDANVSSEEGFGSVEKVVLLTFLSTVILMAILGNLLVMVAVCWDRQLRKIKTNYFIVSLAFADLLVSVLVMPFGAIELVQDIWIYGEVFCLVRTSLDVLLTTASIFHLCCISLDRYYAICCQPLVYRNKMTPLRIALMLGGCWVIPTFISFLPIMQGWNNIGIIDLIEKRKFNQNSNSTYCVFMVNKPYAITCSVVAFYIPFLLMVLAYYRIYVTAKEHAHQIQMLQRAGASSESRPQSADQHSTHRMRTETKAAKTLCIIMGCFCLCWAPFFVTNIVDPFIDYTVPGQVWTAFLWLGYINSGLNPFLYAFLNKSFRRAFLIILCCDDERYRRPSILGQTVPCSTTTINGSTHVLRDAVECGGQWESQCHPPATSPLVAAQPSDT

Compound | NanoBRET Fold Response ([1]; AVPR2, tracer 0.1μM) | NanoBRET Fold Response ([1]; AVPR2, tracer 1μM) | NanoBRET Fold Response ([2]; CCR3, tracer 0.1μM) | NanoBRET Fold Response ([2]; CCR3, tracer 1μM) | NanoBRET Fold Response ([3]; CCR5, tracer 0.1μM) | NanoBRET Fold Response ([3]; CCR5, tracer 1μM) | NanoBRET Fold Response ([4]; HTR4, tracer 0.1μM) | NanoBRET Fold Response ([4]; HTR4, tracer 1μM) | NanoBRET Fold Response ([5]; RXFP3, tracer 0.1μM) | NanoBRET Fold Response ([5]; RXFP3, tracer 1μM) | also measured
COc1ccccc1N1CCN(CCCCN2C(=O)c3ccc(CNC(=O)CCOCCNC(=O)c4ccc(CNC(=O)CCc5ccc6n5[B-](F)(F)[N+]5=C(c7ccc[nH]7)C=CC5=C6)cc4)cc3C2=O)CC1 [NAN-190-3-NB590] | 1.08 | 1.11 | 1.02 | 1.02 | 0.95 | 1.03 | 1.00 | 1.03 | 1.08 | 0.95 | 
O=C(CCc1ccc2n1[B-](F)(F)[N+]1=C(c3ccc[nH]3)C=CC1=C2)NCc1ccc(C(=O)NCCOCCC(=O)N[C@@H]2CC[C@@]3(O)[C@H]4Cc5ccc(O)c6c5[C@@]3(CCN4CC3CC3)[C@H]2O6)cc1 [Naltrexone-3-NB590] | 1.30 | 0.97 | 1.35 | 0.89 | 1.21 | 1.11 | 0.97 | 1.05 | 0.98 | 1.05 | 
CCOC(=O)c1cc(C#N)c(N2CCC(C(=O)NS(=O)(=O)Cc3ccccc3/C=C/C(=O)NCCNC(=O)CCc3ccc4n3[B-](F)(F)[N+]3=C(c5ccc[nH]5)C=CC3=C4)CC2)nc1C [AZD1283-1-NB590] |  |  |  |  |  |  |  |  |  |  | NanoBRET Fold Response ([1]; AVPR2, 0.1μM): 1.03; NanoBRET Fold Response ([1]; AVPR2, 1μM): 1.05; NanoBRET Fold Response ([2]; CCR3, 0.1μM): 0.96; NanoBRET Fold Response ([2]; CCR3, 1μM): 1.02; NanoBRET Fold Response ([3]; CCR5, 0.1μM): 1.02; NanoBRET Fold Response ([3]; CCR5, 1μM): 1.04; NanoBRET Fold Response ([4]; HTR4, 0.1μM): 1.01; NanoBRET Fold Response ([4]; HTR4, 1μM): 1.00; NanoBRET Fold Response ([5]; RXFP3, 0.1μM): 0.94; NanoBRET Fold Response ([5]; RXFP3, 1μM): 1.12
COc1ccc2[nH]c(-c3ccc(CNC(=O)CCOCCOCCOCCOCCNC(=O)CCc4ccc5n4[B-](F)(F)[N+]4=C(c6ccc[nH]6)C=CC4=C5)cc3)c(CCNC(C)=O)c2n1 [AzomelatoninICO9-2-NB590] |  |  |  |  |  |  |  |  |  |  | NanoBRET Fold Response ([1]; 0.1μM tracer): 0.84; NanoBRET Fold Response ([1]; 1μM tracer): 0.87; NanoBRET Fold Response ([2]; 0.1μM tracer): 1.40; NanoBRET Fold Response ([2]; 1μM tracer): 1.25; NanoBRET Fold Response ([3]; 0.1μM tracer): 1.31; NanoBRET Fold Response ([3]; 1μM tracer): 0.98; NanoBRET Fold Response ([4]; 0.1μM tracer): 1.03; NanoBRET Fold Response ([4]; 1μM tracer): 0.95; NanoBRET Fold Response ([5]; 0.1μM tracer): 0.89; NanoBRET Fold Response ([5]; 1μM tracer): 1.22
CC(C)N(CC[C@H](c1ccccc1)c1cc(CCNC(=O)CCOCCOCCOCCOCCNC(=O)CCc2ccc3n2[B-](F)(F)[N+]2=C(c4ccc[nH]4)C=CC2=C3)ccc1O)C(C)C [Tolterodine-2-NB590] | 1.06 | 1.06 | 1.63 | 1.01 | 1.03 | 1.01 | 0.92 | 1.00 | 1.18 | 1.10 | 
CN1CCN(C2=Nc3cc(Cl)ccc3N(CC(=O)NCCOCCOCCOCCOCCNC(=O)CCc3ccc4n3[B-](F)(F)[N+]3=C(c5ccc[nH]5)C=CC3=C4)c3ccccc32)CC1 [Clozapine-c-2-NB590] |  |  |  |  |  |  |  |  |  |  | NanoBRET Fold Response ([1]; AVPR2, 0.1μM tracer): 0.99; NanoBRET Fold Response ([1]; AVPR2, 1μM tracer): 1.00; NanoBRET Fold Response ([2]; CCR3, 0.1μM tracer): 0.97; NanoBRET Fold Response ([2]; CCR3, 1μM tracer): 0.85; NanoBRET Fold Response ([3]; CCR5, 0.1μM tracer): 0.98; NanoBRET Fold Response ([3]; CCR5, 1μM tracer): 0.95; NanoBRET Fold Response ([4]; HTR4, 0.1μM tracer): 1.02; NanoBRET Fold Response ([4]; HTR4, 1μM tracer): 1.07; NanoBRET Fold Response ([5]; RXFP3, 0.1μM tracer): 0.99; NanoBRET Fold Response ([5]; RXFP3, 1μM tracer): 1.05
N#CN=C(NCCCOc1cccc(CN2CCCCC2)c1)NCCNC(=O)CCOCCOCCOCCOCCNC(=O)CCc1ccc2n1[B-](F)(F)[N+]1=C(c3ccc[nH]3)C=CC1=C2 [Aminopotentidine-2-NB590] | 1.01 | 1.04 | 0.95 | 0.89 | 1.00 | 1.11 | 0.97 | 1.05 | 1.04 | 0.97 | 
COc1ccc2c(n1)c(CCNC(C)=O)cn2CCNC(=O)CCc1ccc2n1[B-](F)(F)[N+]1=C(c3ccc[nH]3)C=CC1=C2 [Azamelatonin-1-NB590] |  |  |  |  |  |  |  |  |  |  | NanoBRET Fold Response ([1]; 0.1μM tracer): 0.91; NanoBRET Fold Response ([1]; 1μM tracer): 1.01; NanoBRET Fold Response ([2]; 0.1μM tracer): 1.27; NanoBRET Fold Response ([2]; 1μM tracer): 0.96; NanoBRET Fold Response ([3]; 0.1μM tracer): 1.29; NanoBRET Fold Response ([3]; 1μM tracer): 0.63; NanoBRET Fold Response ([4]; 0.1μM tracer): 0.95; NanoBRET Fold Response ([4]; 1μM tracer): 1.02; NanoBRET Fold Response ([5]; 0.1μM tracer): 1.07; NanoBRET Fold Response ([5]; 1μM tracer): 1.11
